From US6835536B2, “Antimicrobial cationic peptides and formulations thereof” (Micrologix Biotech Inc., priority 2001, dated 2004)

What follows are substances tested on C. albicans (assay: Agarose dilution MIC assay). Settings: C. albicans (CA002); Table 6.
Assay type: cell-based
Excerpt: (§1) The agarose dilution assay measures antimicrobial activity of peptides and peptide analogues. The activity is expressed as the minimum inhibitory concentration (MIC) in μg/ml of the peptide.
(§2) In order to mimic in vivo conditions, calcium and magnesium supplemented Mueller Hinton broth is used in combination with a low EEO agarose as the bacterial growth medium. Agarose, rather than agar, is used as the charged groups in agar prevent peptide diffusion through the medium. The medium is autoclaved, then cooled to 50-55° C. in a water bath before aseptic addition of a peptide solution. The same volume of different concentrations of peptide solution is added to the cooled, molten agarose that is then poured into a petri plate to a depth of 3-4 mm and allowed to solidify.
(§3) The bacterial inoculum is adjusted to a 0.5 McFarland turbidity standard (PML Microbiological) and then diluted 1:10 before application on to the agarose plate. The final inoculum applied to the agarose is approximately 10^4 CFU in a 5-8 mm diameter spot. The agarose plates are incubated at 35-37° C. for 16 to 20 hours.

| Substance | MIC |
| --- | --- |
| I L R W P W W P W R R K [Peptide 11B7CN] | Organism Tested: C. albicans (CA002) MIC = 64 ug/ml |

Same assay, conditions: C. albicans strain CAL002; agarose dilution

| Substance | Minimum Inhibitory Concentration [µg/mL] |
| --- | --- |
| I L R R W V W W V W R R K [Peptide 11F5CN] | 32 |
| R L W V W W V W R r [Peptide 11F68CN] | 32 |
| R L W W V V W W R R [Peptide 11F56CN] | 16 |
| i L K K W P W W P W R R k [Peptide 11E3CN] | 32 |
| R L F V W W V F R R [Peptide 11F64CN] | 16 |

The substances below were run on C. neoformans (assay: Agarose dilution MIC assay). Settings: C. neoformans strain CNE001.
Assay type: cell-based
Excerpt: as §1, §2, §3

| Substance | Minimum Inhibitory Concentration [µg/mL] |
| --- | --- |
| I L R R W V W W V W R R K [Peptide 11F5CN] | 8 |
| R L W V W W V W R r [Peptide 11F68CN] | 8 |
| R L W W V V W W R R [Peptide 11F56CN] | 8 |
| i L K K W P W W P W R R k [Peptide 11E3CN] | 4 |
| R L F V W W V F R R [Peptide 11F64CN] | 8 |

Each substance was assayed on A. calcoaceticus (assay: Agarose dilution MIC assay). Settings: A. calcoaceticus strain ACA002.
Assay type: cell-based
Excerpt: as §1, §2, §3

| Substance | Minimum Inhibitory Concentration [µg/mL] |
| --- | --- |
| I L R R W V W W V W R R K [Peptide 11F5CN] | 4 |
| R L W V W W V W R r [Peptide 11F68CN] | 1 |
| R L W W V V W W R R [Peptide 11F56CN] | 1 |
| i L K K W P W W P W R R k [Peptide 11E3CN] | 4 |
| R L F V W W V F R R [Peptide 11F64CN] | 2 |

Each substance was assayed on S. pneumoniae (assay: Agarose dilution MIC assay). Settings: S. pneumoniae strain SPN002.
Assay type: cell-based
Excerpt: as §1, §2, §3

| Substance | Minimum Inhibitory Concentration [µg/mL] |
| --- | --- |
| I L R R W V W W V W R R K [Peptide 11F5CN] | 4 |
| R L W V W W V W R r [Peptide 11F68CN] | 2 |
| R L W W V V W W R R [Peptide 11F56CN] | 2 |
| i L K K W P W W P W R R k [Peptide 11E3CN] | 4 |
| R L F V W W V F R R [Peptide 11F64CN] | 2 |

The substances below were run on C. jeikeium (assay: Agarose dilution MIC assay). Settings: C. jeikeium strain CJK005.
Assay type: cell-based
Excerpt: as §1, §2, §3

| Substance | Minimum Inhibitory Concentration [µg/mL] |
| --- | --- |
| I L R R W V W W V W R R K [Peptide 11F5CN] | 0.5 |
| R L W V W W V W R r [Peptide 11F68CN] | 0.5 |
| R L W W V V W W R R [Peptide 11F56CN] | 0.5 |
| i L K K W P W W P W R R k [Peptide 11E3CN] | 0.5 |
| R L F V W W V F R R [Peptide 11F64CN] | 0.5 |

The substances below were run on K. pneumoniae (assay: Agarose dilution MIC assay). Settings: K. pnenmoniae strain KPN001.
Assay type: cell-based
Excerpt: as §1, §2, §3

| Substance | Minimum Inhibitory Concentration [µg/mL] |
| --- | --- |
| I L R R W V W W V W R R K [Peptide 11F5CN] | 64 |
| R L W V W W V W R r [Peptide 11F68CN] | 2 |
| R L W W V V W W R R [Peptide 11F56CN] | 2 |
| i L K K W P W W P W R R k [Peptide 11E3CN] | 32 |
| R L F V W W V F R R [Peptide 11F64CN] | 2 |

What follows are substances tested on P. aeruginosa (assay: Agarose dilution MIC assay). Settings: P. aeruginosa (PA004); Table 6.
Assay type: cell-based
Excerpt: as §1, §2, §3

| Substance | MIC |
| --- | --- |
| I L R W P W W P W R R K [Peptide 11B7CN] | Organism Tested: P. aeruginosa (PA004) MIC = 128 ug/ml |

Same assay, conditions: P. aeruginosa strain PAE004; agarose dilution

| Substance | Minimum Inhibitory Concentration [µg/mL] |
| --- | --- |
| I L R R W V W W V W R R K [Peptide 11F5CN] | 64 |
| R L W V W W V W R r [Peptide 11F68CN] | 32 |
| R L W W V V W W R R [Peptide 11F56CN] | 32 |
| i L K K W P W W P W R R k [Peptide 11E3CN] | 64 |
| R L F V W W V F R R [Peptide 11F64CN] | 16 |

Each substance was assayed on S. aureus (assay: Agarose dilution MIC assay). Settings: S. aureus (SA016); Table 6.
Assay type: cell-based
Excerpt: as §1, §2, §3

| Substance | MIC |
| --- | --- |
| I L R W P W W P W R R K [Peptide 11B7CN] | Organism Tested: S. aureus (SA016) MIC = 2 ug/ml |

Same assay, conditions: S. aureus strain SAU014; agarose dilution

| Substance | Minimum Inhibitory Concentration [µg/mL] |
| --- | --- |
| I L R R W V W W V W R R K [Peptide 11F5CN] | 8 |
| R L W V W W V W R r [Peptide 11F68CN] | 2 |
| R L W W V V W W R R [Peptide 11F56CN] | 1 |
| i L K K W P W W P W R R k [Peptide 11E3CN] | 8 |
| R L F V W W V F R R [Peptide 11F64CN] | 1 |

What follows are substances tested on S. epidermidis (assay: Agarose dilution MIC assay). Settings: S. epidermidis (SE010); Table 6.
Assay type: cell-based
Excerpt: as §1, §2, §3

| Substance | MIC |
| --- | --- |
| I L R W P W W P W R R K [Peptide 11B7CN] | Organism Tested: S. epidermidis (SE010) MIC = 4 ug/ml |

Same assay, conditions: S. epidermidis strain SEP010; agarose dilution

| Substance | Minimum Inhibitory Concentration [µg/mL] |
| --- | --- |
| I L R R W V W W V W R R K [Peptide 11F5CN] | 2 |
| R L W V W W V W R r [Peptide 11F68CN] | 1 |
| R L W W V V W W R R [Peptide 11F56CN] | 1 |
| i L K K W P W W P W R R k [Peptide 11E3CN] | 4 |
| R L F V W W V F R R [Peptide 11F64CN] | 1 |

Each substance was assayed on S. marcescens (assay: Agarose dilution MIC assay). Settings: S. marcescens strain SMS003.
Assay type: cell-based
Excerpt: as §1, §2, §3

| Substance | Minimum Inhibitory Concentration [µg/mL] |
| --- | --- |
| I L R R W V W W V W R R K [Peptide 11F5CN] | >128 |
| R L W V W W V W R r [Peptide 11F68CN] | >128 |
| R L W W V V W W R R [Peptide 11F56CN] | >128 |
| i L K K W P W W P W R R k [Peptide 11E3CN] | >128 |
| R L F V W W V F R R [Peptide 11F64CN] | >128 |

The substances below were run on E. faecalis (assay: Agarose dilution MIC assay). Settings: E. faecalis strain EFS001.
Assay type: cell-based
Excerpt: as §1, §2, §3

| Substance | Minimum Inhibitory Concentration [µg/mL] |
| --- | --- |
| I L R R W V W W V W R R K [Peptide 11F5CN] | 16 |
| R L W V W W V W R r [Peptide 11F68CN] | 2 |
| R L W W V V W W R R [Peptide 11F56CN] | 2 |
| i L K K W P W W P W R R k [Peptide 11E3CN] | 64 |
| R L F V W W V F R R [Peptide 11F64CN] | 2 |

The substances below were run on S. mitis (assay: Agarose dilution MIC assay). Settings: S. mitis strain SMT014.
Assay type: cell-based
Excerpt: as §1, §2, §3

| Substance | Minimum Inhibitory Concentration [µg/mL] |
| --- | --- |
| I L R R W V W W V W R R K [Peptide 11F5CN] | 2 |
| R L W V W W V W R r [Peptide 11F68CN] | 1 |
| R L W W V V W W R R [Peptide 11F56CN] | 1 |
| i L K K W P W W P W R R k [Peptide 11E3CN] | 2 |
| R L F V W W V F R R [Peptide 11F64CN] | 1 |

Each substance was assayed on S. maltophilia (assay: Agarose dilution MIC assay). Settings: S. maltophilia strain SMA002.
Assay type: cell-based
Excerpt: as §1, §2, §3

| Substance | Minimum Inhibitory Concentration [µg/mL] |
| --- | --- |
| I L R R W V W W V W R R K [Peptide 11F5CN] | 16 |
| R L W V W W V W R r [Peptide 11F68CN] | 2 |
| R L W W V V W W R R [Peptide 11F56CN] | 2 |
| i L K K W P W W P W R R k [Peptide 11E3CN] | 64 |
| R L F V W W V F R R [Peptide 11F64CN] | 1 |

The substances below were run on E. coli (assay: Agarose dilution MIC assay). Settings: E. coli strain ECO005.
Assay type: cell-based
Excerpt: as §1, §2, §3

| Substance | Minimum Inhibitory Concentration [µg/mL] |
| --- | --- |
| I L R R W V W W V W R R K [Peptide 11F5CN] | 16 |
| R L W V W W V W R r [Peptide 11F68CN] | 2 |
| R L W W V V W W R R [Peptide 11F56CN] | 2 |
| i L K K W P W W P W R R k [Peptide 11E3CN] | 8 |
| R L F V W W V F R R [Peptide 11F64CN] | 2 |

The substances below were run on S. pyogenes (assay: Agarose dilution MIC assay). Settings: S. pyogenes strain SPY001.
Assay type: cell-based
Excerpt: as §1, §2, §3

| Substance | Minimum Inhibitory Concentration [µg/mL] |
| --- | --- |
| I L R R W V W W V W R R K [Peptide 11F5CN] | 2 |
| R L W V W W V W R r [Peptide 11F68CN] | 1 |
| R L W W V V W W R R [Peptide 11F56CN] | 1 |
| i L K K W P W W P W R R k [Peptide 11E3CN] | 1 |
| R L F V W W V F R R [Peptide 11F64CN] | 1 |

These substances were tested on E. cloacae (assay: Agarose dilution MIC assay). Settings: E. cloacae strain ECL007.
Assay type: cell-based
Excerpt: as §1, §2, §3

| Substance | Minimum Inhibitory Concentration [µg/mL] |
| --- | --- |
| I L R R W V W W V W R R K [Peptide 11F5CN] | 128 |
| R L W V W W V W R r [Peptide 11F68CN] | 32 |
| R L W W V V W W R R [Peptide 11F56CN] | 32 |
| i L K K W P W W P W R R k [Peptide 11E3CN] | >128 |
| R L F V W W V F R R [Peptide 11F64CN] | 16 |
